One data set deals with T1, Bgl3A (Evansstolkia leycettana, UniProt A0A1B0VFN7).
T1 construct: laboratory stock enzyme
Briefly: inhibition of daidzin hydrolysis, HPLC. The format is biochemical. As to conditions: 0.5 mM daidzin, glucose printed as 10 mM but 80 mM stock diluted fourfold; pH 6.5, 37 °C, 5 min.

Another data set concerns the target AsBG1 (Alicyclobacillus sp. A4, UniProt A0A220YLM5). Briefly: inhibition of cellobiose hydrolysis, ion exchange chromatography. It is filed as biochemical. Particulars: read-out: % inhibition at 10 mM.
Data set [1] relates to O=[N+]([O-])c1ccc(O[C@@H]2O[C@H](CO)[C@@H](O)[C@H](O)[C@H]2O)cc1. Briefly: initial rate, Lineweaver-Burk plot. Particulars: pH 6.5, 55 °C, 5 min, 0.2-1.5 mM pNPG. It is filed as biochemical, Alicyclobacillus sp. A4.

Sequence of AsBG1 (A0A220YLM5 1-454 limits assumed): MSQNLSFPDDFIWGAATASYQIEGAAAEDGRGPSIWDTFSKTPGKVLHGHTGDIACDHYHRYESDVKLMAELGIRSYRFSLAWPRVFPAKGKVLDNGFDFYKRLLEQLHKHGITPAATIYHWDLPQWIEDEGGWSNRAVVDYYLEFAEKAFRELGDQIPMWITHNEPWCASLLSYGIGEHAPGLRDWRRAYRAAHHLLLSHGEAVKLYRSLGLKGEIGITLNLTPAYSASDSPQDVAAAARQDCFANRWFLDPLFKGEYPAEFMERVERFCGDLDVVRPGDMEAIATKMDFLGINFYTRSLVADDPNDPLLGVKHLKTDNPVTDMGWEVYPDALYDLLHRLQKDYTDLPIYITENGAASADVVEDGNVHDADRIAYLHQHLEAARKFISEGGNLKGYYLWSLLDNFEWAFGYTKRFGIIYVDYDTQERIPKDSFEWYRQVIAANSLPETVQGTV
T1 sequence (A0A1B0VFN7 entry or part of it): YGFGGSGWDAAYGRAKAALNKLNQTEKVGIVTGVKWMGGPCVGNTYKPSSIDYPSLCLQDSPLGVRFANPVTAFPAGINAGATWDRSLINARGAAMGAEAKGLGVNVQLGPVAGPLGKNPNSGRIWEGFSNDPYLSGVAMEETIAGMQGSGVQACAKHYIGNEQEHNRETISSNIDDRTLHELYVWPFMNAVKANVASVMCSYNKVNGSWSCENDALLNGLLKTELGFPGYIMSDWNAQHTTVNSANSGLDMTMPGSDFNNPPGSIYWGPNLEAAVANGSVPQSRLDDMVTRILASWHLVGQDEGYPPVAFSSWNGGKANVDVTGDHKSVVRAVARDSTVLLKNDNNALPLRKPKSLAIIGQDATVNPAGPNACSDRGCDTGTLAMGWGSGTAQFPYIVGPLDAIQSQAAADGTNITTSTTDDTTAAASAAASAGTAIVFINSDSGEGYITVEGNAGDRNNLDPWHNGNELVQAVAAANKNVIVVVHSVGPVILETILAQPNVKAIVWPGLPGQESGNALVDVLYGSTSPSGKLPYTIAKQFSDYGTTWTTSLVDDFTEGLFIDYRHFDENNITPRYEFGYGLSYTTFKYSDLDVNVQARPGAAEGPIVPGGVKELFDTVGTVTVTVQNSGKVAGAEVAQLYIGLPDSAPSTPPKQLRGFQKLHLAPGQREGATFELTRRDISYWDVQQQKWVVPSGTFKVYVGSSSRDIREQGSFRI

With `OC[C@H]1OC(O)[C@H](O)[C@@H](O)[C@@H]1O` (stereo partly drawn) [glucose], on Bgl3A, the “inhibition of daidzin hydrolysis, HPLC” value is listed as “the conversion efficiency of daidzin by Bgl3A was seriously impeded by glucose”. Also, the inhibition at 10000 µM on AsBG1 was approximately 60%. For the compound AsBG1 (Alicyclobacillus sp. A4), in data set [1], the Km worked out at 400 µM.

One may read the inhibition as the percentage by which the read-out fell short of the control. As usually defined, the Km is the concentration of substrate that gives half-maximal velocity.

For the origin of these results see paper PMC6028883, “A highly glucose-tolerant GH1 β-glucosidase with greater conversion rate of soybean isoflavones in monogastric animals” (Journal of Industrial Microbiology & Biotechnology, 2018).
